ChEMBL document CHEMBL1201862, “PubChem BioAssay data set” (2004)
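Grown in 96-well plates, cells were treated for 48 hours with each compound at five concentrations. Insufficient inhibition: endpoint recorded as highest concentration tested. GI50 marks 50% less growth.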 Active and inactive are the calls of the source. Cut-off read from the data, not from the text of the source: active = GI50 up to about 1.1 µM and inactive = higher.

Key:
Assay in all cases: NCI-60 cell line screen, 48 h
HL-60 = tested on: HL-60
LOX IMVI = tested on: LOX IMVI
OVCAR-5 = tested on: OVCAR-5
SK-MEL-5 = tested on: SK-MEL-5
A498 = tested on: A498
U-251 = tested on: U-251
SN12C = tested on: SN12C
A549 = tested on: A549
Hs-578T = tested on: Hs-578T
MCF7 = tested on: MCF7
OVCAR-8 = tested on: OVCAR-8
IGROV-1 = tested on: IGROV-1
NCI-H23 = tested on: NCI-H23
NCI-H226 = tested on: NCI-H226
MDA-N = tested on: MDA-N
SF-268 = tested on: SF-268
UACC-257 = tested on: UACC-257
RXF 393 = tested on: RXF 393
CCRF-CEM = tested on: CCRF-CEM
MOLT-4 = tested on: MOLT-4

Measured: GI50

CCCCCCCCCCCCCCCCCCNc1ccn(C2OC(CO)C(OP(=O)(O)OCC(O)COP(=O)(O)OCC3OC(n4cc(F)c(NCCCCCCCCCCCCCCCCCC)nc4=O)CC3O)C2O)c(=O)n1 (stereo unspecified)
inactive: HL-60 > 50 µM | LOX IMVI > 50 µM | OVCAR-5 > 50 µM | SK-MEL-5 > 50 µM | A498 > 50 µM | U-251 > 50 µM | SN12C > 50 µM | A549 > 50 µM | Hs-578T > 50 µM | MCF7 > 50 µM | OVCAR-8 > 50 µM | IGROV-1 > 50 µM | NCI-H23 > 50 µM | NCI-H226 > 50 µM | MDA-N > 50 µM | SF-268 > 50 µM | UACC-257 > 50 µM

O=C(OCCN=c1c2ccccc2ccc2ccccc12)c1ccc([N+](=O)[O-])cc1
inactive: HL-60 > 100 µM | LOX IMVI > 100 µM | OVCAR-5 > 100 µM | SK-MEL-5 > 100 µM | U-251 > 100 µM | SN12C > 100 µM | A549 > 100 µM | RXF 393 > 100 µM | Hs-578T > 100 µM | MCF7 > 100 µM | OVCAR-8 > 100 µM | IGROV-1 > 100 µM | NCI-H23 > 100 µM | NCI-H226 > 100 µM | MDA-N > 100 µM | CCRF-CEM > 100 µM | SF-268 > 100 µM | MOLT-4 > 100 µM | UACC-257 > 100 µM

COc1cc(/C=C/c2cc(/C=C/c3ccc(O)c(OC)c3)oc(=O)c2)ccc1O
inactive: LOX IMVI 3.71 µM | OVCAR-5 32.8 µM | SK-MEL-5 4.99 µM | A498 3.9 µM | U-251 3.07 µM | SN12C 5.53 µM | A549 3.17 µM | Hs-578T 4.54 µM | MCF7 3.33 µM | OVCAR-8 4.12 µM | IGROV-1 4.67 µM | NCI-H23 4.06 µM | NCI-H226 10.5 µM | MDA-N 4.7 µM | CCRF-CEM 3.64 µM | SF-268 3.94 µM | MOLT-4 3.48 µM | UACC-257 5.25 µM

CC(=O)OCC1OC(n2c(C)c(/N=N/c3ccc(C)cc3)c(C)c(C#N)c2=S)C(OC(C)=O)C(OC(C)=O)C1OC(C)=O (stereo unspecified)
inactive: HL-60 > 100 µM | LOX IMVI > 100 µM | OVCAR-5 > 100 µM | SK-MEL-5 43.2 µM | U-251 > 100 µM | SN12C > 100 µM | A549 > 100 µM | RXF 393 > 100 µM | Hs-578T 23.5 µM | MCF7 > 100 µM | IGROV-1 > 100 µM | NCI-H23 > 100 µM | MDA-N > 100 µM | CCRF-CEM > 100 µM | SF-268 > 100 µM | MOLT-4 > 100 µM | UACC-257 > 100 µM

COc1c(-c2ccc(F)cc2)oc2cc(O)cc(O)c2c1=O
inactive: HL-60 30.9 µM | LOX IMVI 21.8 µM | OVCAR-5 25.5 µM | SK-MEL-5 16.5 µM | A498 47.6 µM | U-251 30.5 µM | SN12C 30.3 µM | A549 31 µM | Hs-578T 35.2 µM | MCF7 33.7 µM | OVCAR-8 28.7 µM | IGROV-1 21.4 µM | NCI-H23 29.6 µM | MDA-N 26.2 µM | CCRF-CEM 29.4 µM | SF-268 40 µM | MOLT-4 24.2 µM

O=C(Oc1cncc(Cl)c1)c1cc2ccccc2sc1=O
inactive: HL-60 47.6 µM | LOX IMVI 37.3 µM | OVCAR-5 > 100 µM | SK-MEL-5 31.7 µM | U-251 49.8 µM | SN12C 60.3 µM | A549 > 100 µM | RXF 393 23 µM | Hs-578T 38.9 µM | MCF7 39.4 µM | OVCAR-8 > 100 µM | IGROV-1 49.5 µM | NCI-H23 58.7 µM | NCI-H226 22.4 µM | MDA-N 78.2 µM | SF-268 49.5 µM | MOLT-4 23.7 µM | UACC-257 > 100 µM

CC12CCC3[C@@H](CC3(C)C)C(O)(CCC1=O)C2 (stereo partly specified)
inactive: HL-60 > 100 µM | LOX IMVI > 100 µM | OVCAR-5 > 100 µM | SK-MEL-5 > 100 µM | U-251 > 100 µM | SN12C > 100 µM | A549 > 100 µM | Hs-578T > 100 µM | MCF7 > 100 µM | OVCAR-8 > 100 µM | IGROV-1 > 100 µM | NCI-H23 > 100 µM | NCI-H226 > 100 µM | MDA-N > 100 µM | CCRF-CEM > 100 µM | SF-268 > 100 µM | MOLT-4 > 100 µM | UACC-257 > 100 µM

COc1cc(C2SC(=N)Nc3c2c(C)nn3C(=O)Cc2ccccc2)cc(OC)c1OC (stereo unspecified)
inactive: HL-60 > 100 µM | LOX IMVI > 100 µM | SK-MEL-5 > 100 µM | A498 > 100 µM | SN12C > 100 µM | A549 > 100 µM | Hs-578T > 100 µM | MCF7 > 100 µM | OVCAR-8 > 100 µM | IGROV-1 > 100 µM | NCI-H23 > 100 µM | NCI-H226 > 100 µM | MDA-N > 100 µM | CCRF-CEM > 100 µM | SF-268 > 100 µM | MOLT-4 > 100 µM | UACC-257 > 100 µM
